Data on 4 compounds can be found in patent US9914726B2, “2-(2,4-difluorophenyl)-1,1-difluoro-1-(5-substituted-pyridin-2-yl)-3-(1H-tetrazol-1-yl)propan-2-ols and processes for their preparation” (Viamet Pharmaceuticals, Inc., priority 2014, dated 2018).

Molecules are shown by their SMILES.

Test [1] has as its system Mycosphaerella graminicola; anamorph: Septoria tritici (SEPTTR). Nature of the test: Fungicidal activity: leaf blotch of wheat (SEPTTR), wheat seedlings sprayed and inoculated. In kind it is in vivo. Conditions: 50 ppm, wheat plants (variety Yuma); for SEPTTR 1DP (% disease control rating): 1 Day Protectant; for SEPTTR 3DC (% disease control rating): 3 Day Curative. How it is done:
Technical grades of materials shown in Table 1 below were dissolved in acetone, which were then mixed with nine volumes of water containing 110 ppm Triton X-100. The fungicide solutions were applied onto wheat seedlings using an automated booth sprayer to run-off. All sprayed plants were allowed to air dry prior to further handling. All fungicides were evaluated using the aforementioned method for their activity vs. all target diseases. Wheat plants (variety Yuma) were grown from seed in a greenhouse in 50% mineral soil/50% soil-less Metro mix until the first leaf was fully emerged, with 7-10 seedlings per pot. These plants were inoculated with an aqueous spore suspension of Septoria tritici either prior to or after fungicide treatments. After inoculation the plants were kept in 100% relative humidity (one day in a dark dew chamber followed by two to three days in a lighted dew chamber at 20° C.) to permit spores to germinate and infect the leaf. The plants were then transferred to a greenhouse set at 20° C. for disease to develop. When disease symptoms were fully expressed on the 1st leaves of untreated plants, infection levels were assessed on a scale of 0 to 100 percent disease severity. Percent disease control was calculated using the ratio of disease severity on treated plants relative to untreated plants.

Test [2] deals with Puccinia triticina; synonym: Puccinia recondita f. sp. tritici (PUCCRT). Description: Fungicidal activity: wheat brown rust (PUCCRT), wheat seedlings sprayed and inoculated. The class given is in vivo. Conditions: 50 ppm, wheat plants (variety Yuma); for PUCCRT 1DC (% disease control rating): 1 Day Curative; for PUCCRT 1DP (% disease control rating): 1 Day Protectant.

For the compound `CC(=O)c1nnnn1CC(O)(c1ccc(F)cc1F)C(F)(F)c1ccc(Oc2ccc(C#N)cc2)cn1` (stereo not shown) [—C(O)Me, 4-((6-(3-(5-acetyl-1H-tetrazol-1-yl)-2-(2,4-difluorophenyl)-1,1-difluoro-2-hydroxypropyl)pyridin-3-yl)oxy)benzonitrile], in test [1], the “SEPTTR 1DP (% disease control rating)” value is “A (80-100)” and the “SEPTTR 3DC (% disease control rating)” value is “A (80-100)”. Also, in test [2], the “PUCCRT 1DC (% disease control rating)” value is on record as “A (80-100)” and the “PUCCRT 1DP (% disease control rating)” value is reported as “A (80-100)”.
Turning to `N#Cc1ccc(Oc2ccc(C(F)(F)C(O)(Cn3nnnc3C(=O)c3ccccc3)c3ccc(F)cc3F)nc2)cc1` (stereo not shown) [—C(O)Ph, 4-((6-(3-(5-benzoyl-1H-tetrazol-1-yl)-2-(2,4-difluorophenyl)-1,1-difluoro-2-hydroxypropyl)pyridin-3-yl)oxy)benzonitrile], in test [1], the “SEPTTR 1DP (% disease control rating)” value is on record as “C (40-59)” and the “SEPTTR 3DC (% disease control rating)” value was “C (40-59)”. In addition, in test [2], the “PUCCRT 1DC (% disease control rating)” value is recorded as “D (<40)” and the “PUCCRT 1DP (% disease control rating)” value is on record as “A (80-100)”.
Turning to `CCOC(=O)c1nnnn1CC(O)(c1ccc(F)cc1F)C(F)(F)c1ccc(Oc2ccc(C#N)cc2)cn1` (stereo not shown) [—CO2Et, ethyl 1-(3-(5-(4-cyanophenoxy)pyridin-2-yl)-2-(2,4-difluorophenyl)-3,3-difluoro-2-hydroxypropyl)-1H-tetrazole-5-carboxylate], in test [1], the “SEPTTR 1DP (% disease control rating)” value was “A (80-100)” and the “SEPTTR 3DC (% disease control rating)” value was “A (80-100)”. In test [2], the “PUCCRT 1DC (% disease control rating)” value is “A (80-100)” and the “PUCCRT 1DP (% disease control rating)” value is recorded as “A (80-100)”.
On to `Cc1ccc(S(=O)(=O)c2nnnn2CC(O)(c2ccc(F)cc2F)C(F)(F)c2ccc(Oc3ccc(C#N)cc3)cn2)cc1` (stereo not shown) [—SO2(4-MePh), 4-((6-(2-(2,4-difluorophenyl)-1,1-difluoro-2-hydroxy-3-(5-tosyl-1H-tetrazol-1-yl)propyl)pyridin-3-yl)oxy)benzonitrile], for which, in test [1], the “SEPTTR 1DP (% disease control rating)” value is on record as “C (40-59)” and the “SEPTTR 3DC (% disease control rating)” value is “D (<40)”. In test [2], the “PUCCRT 1DC (% disease control rating)” value is on record as “A (80-100)” and the “PUCCRT 1DP (% disease control rating)” value is “D (<40)”.
